ChEMBL document CHEMBL1150910, “Binaphthalenone glycosides from African chewing sticks, Diospyros lycioides” (1998)
Values after ≈ are worked out from the molar mass of the structure shown. Active and inactive are the calls of the source. No cut-off for these calls is given here.

Assays:
Porphyromonas gingivalis = experiment: Antibacterial activity against Porphyromonas gingivalis after 48 hrs by spectrophotometry; format: functional
Streptococcus sanguinis = experiment: Antibacterial activity against Streptococcus sanguis after 48 hrs by spectrophotometry; format: functional
Streptococcus mutans = experiment: Antibacterial activity against Streptococcus mutans Ingbritt after 48 hrs by spectrophotometry; format: functional
Prevotella intermedia = experiment: Antibacterial activity against Prevotella intermedia after 48 hrs by spectrophotometry; format: functional, organism-based

| MIC (Streptococcus sanguinis) | MIC (Streptococcus mutans) | MIC (Porphyromonas gingivalis) | Compound | Activity (Porphyromonas gingivalis) | Activity (Prevotella intermedia) |
| --- | --- | --- | --- | --- | --- |
| 1 mg/L (≈ 1.02 µM) | 1 mg/L (≈ 1.02 µM) | – | CC1=C2c3c(C)cc(O)c4c(O[C@@H]5O[C@H](CO[C@@H]6OC[C@@H](O)[C@H](O)[C@H]6O)[C@@H](O)[C@H](O)[C@H]5O)ccc(c34)OC2(O)c2c(O[C@@H]3O[C@H](CO[C@@H]4OC[C@@H](O)[C@H](O)[C@H]4O)[C@@H](O)[C@H](O)[C@H]3O)ccc(O)c2C1=O (stereo not given in full) | inactive | inactive |
| – | 15 mg/L | 15 mg/L | C[n+]1cc2c3c(ccc2c2ccc4cc5c(cc4c21)OCO5)OCO3 [SANGUINARIUM] | – | – |
| 1 mg/L (≈ 1.18 µM) | 1 mg/L (≈ 1.18 µM) | – | CC1=C2c3c(C)cc(O)c4c(O[C@@H]5O[C@H](CO[C@@H]6OC[C@@H](O)[C@H](O)[C@H]6O)[C@@H](O)[C@H](O)[C@H]5O)ccc(c34)OC2(O)c2c(O[C@@H]3O[C@H](CO)[C@@H](O)[C@H](O)[C@H]3O)ccc(O)c2C1=O (stereo not given in full) | inactive | inactive |
